These results are taken from US20110294729A1, “Novel Insulin Analogues” (Novo Nordisk A/S, priority 2008, published 2011).

For experiment [1] the following is noted: according to WO 90/01038; cited from earlier work.
The subject of experiment [2] is insulin receptor A-isoform and B-isoform. The note with it: cited from earlier work.
For experiment [3], the target named is T1, human IR-B (Homo sapiens, UniProt P06213).
T1 construct: solubilized human IR (holoreceptor) semipurified by wheat germ agglutinin purification; made in house; host or cells: baby hamster kidney (BHK) cells, stably transfected (pZem vector)
T1 sequence (P06213 28-758 limits assumed): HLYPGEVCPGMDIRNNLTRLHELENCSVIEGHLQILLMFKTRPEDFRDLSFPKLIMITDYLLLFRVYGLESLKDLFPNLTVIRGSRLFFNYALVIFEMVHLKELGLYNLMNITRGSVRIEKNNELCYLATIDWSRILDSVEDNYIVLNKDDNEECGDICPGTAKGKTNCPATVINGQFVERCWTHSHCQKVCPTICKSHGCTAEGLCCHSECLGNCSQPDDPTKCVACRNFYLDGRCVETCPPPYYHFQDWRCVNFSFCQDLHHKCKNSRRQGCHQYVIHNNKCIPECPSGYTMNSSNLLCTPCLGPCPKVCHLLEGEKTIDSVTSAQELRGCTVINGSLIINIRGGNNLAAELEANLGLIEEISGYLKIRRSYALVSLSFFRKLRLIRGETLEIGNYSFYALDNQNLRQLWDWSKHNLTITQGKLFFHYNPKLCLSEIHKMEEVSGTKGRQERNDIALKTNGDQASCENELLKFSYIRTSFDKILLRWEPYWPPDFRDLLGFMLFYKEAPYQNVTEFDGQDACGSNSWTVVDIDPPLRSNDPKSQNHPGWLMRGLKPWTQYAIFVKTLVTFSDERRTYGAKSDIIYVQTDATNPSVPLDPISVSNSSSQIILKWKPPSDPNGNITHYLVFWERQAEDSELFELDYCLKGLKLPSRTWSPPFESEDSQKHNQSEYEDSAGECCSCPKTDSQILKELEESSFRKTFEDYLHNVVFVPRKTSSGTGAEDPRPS
T1 sequence (P06213 763-1382 partner limits assumed): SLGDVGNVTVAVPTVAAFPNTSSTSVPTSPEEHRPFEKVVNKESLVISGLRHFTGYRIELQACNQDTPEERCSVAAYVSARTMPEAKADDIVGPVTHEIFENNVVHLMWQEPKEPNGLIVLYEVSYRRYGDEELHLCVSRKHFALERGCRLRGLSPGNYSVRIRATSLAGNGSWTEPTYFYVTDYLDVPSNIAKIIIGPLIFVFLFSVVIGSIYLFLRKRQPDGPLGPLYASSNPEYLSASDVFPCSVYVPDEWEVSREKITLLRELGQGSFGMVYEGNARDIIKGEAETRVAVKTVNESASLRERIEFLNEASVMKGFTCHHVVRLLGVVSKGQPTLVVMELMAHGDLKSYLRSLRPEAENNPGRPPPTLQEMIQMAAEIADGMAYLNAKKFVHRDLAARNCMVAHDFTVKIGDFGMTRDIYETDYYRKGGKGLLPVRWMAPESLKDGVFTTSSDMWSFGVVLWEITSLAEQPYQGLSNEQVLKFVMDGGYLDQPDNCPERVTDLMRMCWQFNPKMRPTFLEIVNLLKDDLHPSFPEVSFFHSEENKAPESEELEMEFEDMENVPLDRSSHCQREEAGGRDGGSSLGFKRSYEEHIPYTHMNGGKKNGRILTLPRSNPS
Nature of the experiment: Insulin receptor binding assay (SPA, solubilised receptor), hIR-B. As to the method:
(§1) Competition binding experiments were performed in 96-well plates (polystyrene Optiplate-96, PerkinElmer) on an Eppendorf epMotion 5075 robot using solubilized human IR (holoreceptor) semipurified by wheat germ agglutinin purification from baby hamster kidney (BHK) cells, which were stably transfected with the pZem vector containing the human IR-A or IR-B insert.

Experiment [4] concerns the target T2, human IR-A (Homo sapiens, UniProt P06213).
T2 construct: solubilized human IR (holoreceptor) semipurified by wheat germ agglutinin purification; made in house; host or cells: baby hamster kidney (BHK) cells, stably transfected (pZem vector)
Nature of the experiment: Insulin receptor binding assay (SPA, solubilised receptor), hIR-A. The note with it: hIR-A affinity relative to human insulin; analogue directly in yeast supernatant; SPA competition with [125I]A14Tyr-labelled insulin. As to the method: as §1

T2 sequence (P06213 28-746 isoform P06213-2 limits assumed): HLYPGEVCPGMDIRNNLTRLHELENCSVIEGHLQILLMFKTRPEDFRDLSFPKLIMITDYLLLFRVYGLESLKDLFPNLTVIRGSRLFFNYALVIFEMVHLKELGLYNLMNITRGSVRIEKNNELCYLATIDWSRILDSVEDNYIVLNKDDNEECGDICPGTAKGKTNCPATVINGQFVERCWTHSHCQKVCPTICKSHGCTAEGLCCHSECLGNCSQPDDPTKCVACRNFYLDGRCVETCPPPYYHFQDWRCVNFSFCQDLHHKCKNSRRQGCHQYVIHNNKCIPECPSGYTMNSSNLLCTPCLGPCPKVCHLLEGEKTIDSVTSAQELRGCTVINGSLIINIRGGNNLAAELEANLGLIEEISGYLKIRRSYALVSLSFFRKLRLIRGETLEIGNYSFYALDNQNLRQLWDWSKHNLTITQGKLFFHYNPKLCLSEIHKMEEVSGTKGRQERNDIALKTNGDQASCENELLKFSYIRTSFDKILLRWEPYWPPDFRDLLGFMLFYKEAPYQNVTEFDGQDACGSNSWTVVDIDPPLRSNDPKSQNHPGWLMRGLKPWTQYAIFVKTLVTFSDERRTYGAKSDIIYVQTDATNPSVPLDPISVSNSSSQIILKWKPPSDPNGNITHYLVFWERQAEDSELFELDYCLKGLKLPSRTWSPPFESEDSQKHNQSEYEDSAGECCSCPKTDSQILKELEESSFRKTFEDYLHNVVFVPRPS
T2 sequence (P06213 763-1382 partner limits assumed): as the sequence (P06213 763-1382 partner limits assumed) above

His^B25 human insulin: the biological activity result in experiment [1] is on record as “high biological activity”. His^B25 human insulin B30 amide: the biological activity result in experiment [1] was “high biological activity”. Turning to His^B25, Asp^B28, desB30 human insulin, in experiment [1], the biological activity result is “high biological activity”.

In the case of Human insulin, in experiment [2] (EMBO Journal 9 (1990), 2409-13), the “affinity for insulin receptor A-isoform versus B-isoform (in words)” value is reported as “slightly higher affinity for the insulin receptor A-isoform than for the B-isoform”. Turning to IGF-II, the “affinity for IR-A versus IR-B” value in experiment [2] (higher affinity for IR-A than for IR-B) is on record as 40-50 fold.

In the case of “[A8H, B25H, B27E, desB30] human insulin [Example 4]”, the “Ratio B/A” value in experiment [3] (Example 8 table, ratio of relative hIR-B affinity to relative hIR-A affinity) came out at 2.1. The “hIR-B [% of HI] (%)” value in experiment [3] (hIR-B affinity relative to human insulin, analogue directly in yeast supernatant, SPA competition with [125I]A14Tyr-labelled insulin) is recorded as 140 ± 5 % of HI. In experiment [4], the “hIR-A [% of HI]” value was 67 ± 3 % of HI.
